This test has as its system KU1919.1. Put plainly: Cell Titer Glo (CTG) proliferation assay, KU1919. The test is classed as cell-based. The note with it: Homo sapiens, KU-19-19; KU1919.1 cells, 72.0 hrs.; read-out: AVE CTG Proliferation KU1919.1 72.0 hrs. Here is the method:
Seed cells in 40 μL of cell culture media into each well of 384-well cell culture plate, spin them at room temperature at 1,000 RPM for 1 minute and then transfer the plates into 37° C. 5% CO2 incubator overnight. Next day, treat cells with 40 nL of diluted compound and return to incubator. After compound treatment for 3 days, Add 30 μL of CellTiter-Glo reagent (Promega) into each well to be detected. Then place the plates at room temperature for 30 min followed by reading on EnVision. Inhibition activity calculated as % DMSO=100×(LumSample-Lum low control)/(Lum high control-Lum low control) where high control is from cells treated with 0.1% DMSO and Low control obtained from PBS only. Use XLFit (equation 201) to calculate IC50 (A+ ((B−A)/(1[…]((x/C)^D)))) where A: Bottom, B: Top, C: IC50, D: Slope.
Regarding `CCc1cccc(-c2cnc(C(=O)N3CCN(CC4CCN(CC(=O)NCCNC[C@@H](C(=O)N5CCN(c6ncnc7c6[C@H](C)C[C@H]7O)CC5)c5ccc(Cl)cc5)CC4)CC3)c(NC(=O)CNCc3ccncn3)c2)c1` [Compound I-166], the IC50 lay within 1 to 5 µM.
Then `CCc1cccc(-c2cnc(C(=O)NCCOCCNCC[C@H](NC(=O)C3(N)CCN(c4ncnc5[nH]ccc45)CC3)c3ccc(Cl)cc3)c(NC(=O)CN3CCOCC3)c2)c1` [Compound I-178], with 1 to 5 µM; and `NC1(C(=O)N[C@@H](CCN2CCC(OC3CCN(C(=O)[C@H](NC(=O)c4ccc(C5CCN(C(=O)CNCc6ccc(F)cc6F)CC5)cc4)C4CCCCC4)CC3)CC2)c2ccc(Cl)cc2)CCN(c2ncnc3[nH]ccc23)CC1` [Compound I-220], with 1 to 5 µM; and `NC1(C(=O)N[C@@H](CCN2CCC(OC3CCN(C(=O)[C@H](NC(=O)c4cc(C5CCCN(C(=O)C6CC6)C5)ccc4F)C4CCCCC4)CC3)CC2)c2ccc(Cl)cc2)CCN(c2ncnc3[nH]ccc23)CC1` (stereo partly drawn) [Compound I-221], with 1 to 5 µM.
In the case of `NC1(C(=O)N[C@@H](CCN2CCC(OC3CCN(C(=O)[C@H](NC(=O)c4cc(C5CCCN(C(=O)CNCc6ccc(F)cc6F)C5)ccc4F)C4CCCCC4)CC3)CC2)c2ccc(Cl)cc2)CCN(c2ncnc3[nH]ccc23)CC1` (stereo partly drawn) [Compound I-222] it was 1 to 5 µM; in that of `NC1(C(=O)N[C@@H](CCNS(=O)(=O)CCCCNC(=O)[C@H](NC(=O)c2cccc(C3CN(C(=O)C4CC4)C3)c2)C2CCCCC2)c2ccc(Cl)cc2)CCN(c2ncnc3[nH]ccc23)CC1` [Compound I-228], more than 10 µM; in that of `NC1(C(=O)N[C@@H](CCN2CCN(C(=O)CN3CCC(OC4CCN(C(=O)[C@H](NC(=O)c5ccc(C6CN(C(=O)C7CC7)C6)cc5)C5CCCCC5)CC4)CC3)CC2)c2ccc(Cl)cc2)CCN(c2ncnc3[nH]ccc23)CC1` [Compound I-229], 1 to 5 µM.
Then `NC1(C(=O)N[C@@H](CCN2CCC(OC3CCN(C(=O)[C@H](NC(=O)c4ccc(C5CCN(C(=O)C6CC6)CC5)cc4)C4CCCCC4)CC3)CC2)c2ccc(Cl)cc2)CCN(c2ncnc3[nH]ccc23)CC1` [Compound I-231], with 1 to 5 µM; and `NC1(C(=O)N[C@@H](CCN2CCN(C(=O)C34CCC(CN5CCN(C(=O)[C@H](NC(=O)c6cccc(C7CCCN(C(=O)C8CC8)C7)c6)C6CCCCC6)CC5)(CC3)OC4)CC2)c2ccc(Cl)cc2)CCN(c2ncnc3[nH]ccc23)CC1` (stereo partly drawn) [Compound I-232], with more than 10 µM; and `NC1(C(=O)N[C@@H](CCN2CCN(C(=O)CN3CCC(CN4CCN(C(=O)c5cccc(C6CCCN(C(=O)C7CC7)C6)c5)CC4)CC3)CC2)c2ccc(Cl)cc2)CCN(c2ncnc3[nH]ccc23)CC1` (stereo partly drawn) [Compound I-233], with 5 to 10 µM.
For `NC1(C(=O)N[C@@H](CCNS(=O)(=O)CCCCNC(=O)[C@H](NC(=O)c2cccc(C3CCCN(C(=O)C4CC4)C3)c2)C2CCCCC2)c2ccc(Cl)cc2)CCN(c2ncnc3[nH]ccc23)CC1` (stereo partly drawn) [Compound I-234], the IC50 was more than 10 µM.
Take `NC1(C(=O)N[C@@H](CCOCCN2CCC(OC3CCN(C(=O)[C@H](NC(=O)c4cccc(C5CCCN(C(=O)CNCc6ccc(F)cc6F)C5)c4)C4CCCCC4)CC3)CC2)c2ccc(Cl)cc2)CCN(c2ncnc3[nH]ccc23)CC1` (stereo partly drawn) [Compound I-236]: the IC50 lay within 0.5 to 1 µM.
In the case of `NC1(C(=O)N[C@@H](CCNC(=O)[C@H](NC(=O)C2CC2)C2CCCCC2)c2ccc(Cl)cc2)CCN(c2ncnc3[nH]ccc23)CC1` [Compound I-237] it was 5 to 10 µM; in that of `NC1(C(=O)N[C@@H](CCNS(=O)(=O)CCCCNC(=O)[C@H](NC(=O)c2cccc(C3CN(C(=O)CNCc4ccc(F)cc4F)C3)c2)C2CCCCC2)c2ccc(Cl)cc2)CCN(c2ncnc3[nH]ccc23)CC1` [Compound I-238], more than 10 µM.
Then `NC1(C(=O)N[C@@H](CCNS(=O)(=O)CCCCNC(=O)[C@H](NC(=O)c2cccc(C3CCCN(C(=O)CNCc4ccc(F)cc4F)C3)c2)C2CCCCC2)c2ccc(Cl)cc2)CCN(c2ncnc3[nH]ccc23)CC1` (stereo partly drawn) [Compound I-239], with more than 10 µM; and `NC1(C(=O)N[C@@H](CCN2CCC(OC3CCN(C(=O)[C@H](NC(=O)c4cccc(C5CN(C(=O)C6CC6)C5)c4)C4CCCCC4)CC3)CC2)c2ccc(Cl)cc2)CCN(c2ncnc3[nH]ccc23)CC1` [Compound I-243], with 1 to 5 µM; and `NC1(C(=O)N[C@@H](CCN2CCC(OC3CCN(C(=O)[C@H](NC(=O)c4cccc(C5CN(C(=O)CNC6CC6)C5)c4)C4CCCCC4)CC3)CC2)c2ccc(Cl)cc2)CCN(c2ncnc3[nH]ccc23)CC1` [Compound I-244], with 1 to 5 µM.
Turning to `NC1(C(=O)N[C@@H](CCN2CCC(OC3CCN(C(=O)[C@H](NC(=O)c4cccc(C5CN(C(=O)CNCc6ccc(F)cc6F)C5)c4)C4CCCCC4)CC3)CC2)c2ccc(Cl)cc2)CCN(c2ncnc3[nH]ccc23)CC1` [Compound I-245], the IC50 lay in the range of 0.5 to 1 µM.
Then `NC1(C(=O)N[C@@H](CCN2CCN(C(=O)C34CCC(CN5CCN(C(=O)c6cccc(C7CCCN(C(=O)C8CC8)C7)c6)CC5)(CC3)OC4)CC2)c2ccc(Cl)cc2)CCN(c2ncnc3[nH]ccc23)CC1` (stereo partly drawn) [Compound I-246], with 1 to 5 µM; and `NC1(C(=O)N[C@@H](CCN2CCN(C(=O)CN3CCC(CN4CCN(C(=O)[C@H](NC(=O)c5cccc(C6CCCN(C(=O)C7CC7)C6)c5)C5CCCCC5)CC4)CC3)CC2)c2ccc(Cl)cc2)CCN(c2ncnc3[nH]ccc23)CC1` (stereo partly drawn) [Compound I-247], with 1 to 5 µM.
Then `NC1(C(=O)N[C@@H](CCN2CCC(OC3CCN(C(=O)[C@H](NC(=O)c4cccc(C5CCCN(C(=O)C6CC6)C5)c4)C4CCCCC4)CC3)CC2)c2ccc(Cl)cc2)CCN(c2ncnc3[nH]ccc23)CC1` (stereo partly drawn) [Compound I-249], with 1 to 5 µM; and `NC1(C(=O)N[C@@H](CCN2CCC(OC3CCN(C(=O)[C@H](NC(=O)c4cccc(C5CCCN(C(=O)CNC6CC6)C5)c4)C4CCCCC4)CC3)CC2)c2ccc(Cl)cc2)CCN(c2ncnc3[nH]ccc23)CC1` (stereo partly drawn) [Compound I-250], with 1 to 5 µM.
As to `NC1(C(=O)N[C@@H](CCN2CCC(OC3CCN(C(=O)[C@H](NC(=O)c4cccc(C5CCCN(C(=O)CNCc6ccc(F)cc6F)C5)c4)C4CCCCC4)CC3)CC2)c2ccc(Cl)cc2)CCN(c2ncnc3[nH]ccc23)CC1` (stereo partly drawn) [Compound I-251], the IC50 fell in the range of 0.5 to 1 µM.
In the case of `NC1(C(=O)N[C@@H](CCN2CCC(OC3CCN(C(=O)[C@H](NC(=O)c4cccc(C5CC5)c4F)C4CCCCC4)CC3)CC2)c2ccc(Cl)cc2)CCN(c2ncnc3[nH]ccc23)CC1` [Compound I-260], the IC50 lay in the range of 1 to 5 µM.
On to `CCc1cccc(-c2cc(F)c(C(=O)N3CCC(CN4CCN(CC[C@H](NC(=O)C5(N)CCN(c6ncnc7[nH]ccc67)CC5)c5ccc(Cl)cc5)CC4)CC3)c(F)c2)c1` [Compound I-263], for which the IC50 fell in the range of 1 to 5 µM.
In the case of `C[C@@H]1C[C@@H](O)c2ncnc(N3CCN(C(=O)[C@H](CNCCNC(=O)CN4CCC(OC5CCN(C(=O)[C@H](NC(=O)c6cccc(C7CCCN(C(=O)C8CC8)C7)c6F)C6CCCCC6)CC5)CC4)c4ccc(Cl)cc4)CC3)c21` (stereo partly drawn) [Compound I-264] it was 1 to 5 µM.
For `C[C@@H]1C[C@@H](O)c2ncnc(N3CCN(C(=O)[C@H](CCN4CCC(CN5CCN(C(=O)[C@H](NC(=O)c6cccc(C7CCCN(C(=O)C8CC8)C7)c6)C6CCCCC6)CC5)CC4)c4ccc(Cl)cc4)CC3)c21` (stereo partly drawn) [Compound I-265], the IC50 lay within 1 to 5 µM.

These data come from patent US20250171465A1, “AKT INHIBITORS” (Stablix, Inc., priority 2023, published 2025).
